Values quoted from earlier work, collected in patent publication US20230111350A1, “Opthalmic Compositions for Treating Coronaviruses” (priority 2020, published 2023).

Experiments:
SARS-CoV-2 = conditions: relative to chloroquine
[1] = systemic administration; dependent on daily dose by weight
[2] = relative to chloroquine

CCN(CC)CCCC(C)Nc1ccnc2cc(Cl)ccc12 (stereo not shown) [chloroquine]
toxicity in ARPE-19 cells (ARPE-19): vacuole formation and cell death

Oc1c(I)cc(Cl)c2cccnc12 [clioquinol]
effect on chloroquine-associated toxicity in ARPE-19 cells (ARPE-19; co-treatment with chloroquine, zinc-dependent, by reversing autophagy arrest): attenuated the chloroquine-associated toxicity

CCN(CCO)CCCC(C)Nc1ccnc2cc(Cl)ccc12 (stereo not shown) [hydroxychloroquine]
potency at inhibiting SARS-CoV-2 in vitro (SARS-CoV-2): more potent than chloroquine
percentage of patients testing positive for COVID-19 (COVID-19; after 6 days, 600 mg/day oral, untreated 90%): 25%
viral load (COVID-19; oral administration): strong reduction in viral load
prevalence of retinal toxicity [1]: ≤ 7.5%
toxicity profile [2]: reduced toxicity profile
